# Patent publication US8299093B2, “Small molecule inhibitors of retroviral assembly and maturation” (New York Blood Center, Inc., priority 2008, dated 2012)
# Legend:
# HIV-1 = test: Inhibition of HIV-1 infectivity (p24 ELISA) in MT-2 cells, laboratory-adapted HIV-1 strains; format: cell-based; details: Human immunodeficiency virus 1, MT2, 96 h, read-out: IC50 (concentration that provides 50% inhibition of HIV-1 p24), Table 1, formula I; MT-2 cells, p24 ELISA day 4
# Method: AZT was used as a positive control in the infectivity assays. In brief, 1×10^4 MT-2 cells (lymphocytes) were infected with HIV-1 at 100 TCID50 (50% tissue culture infective dose, 0.01 MOI [multiplicity of infection]) in 200 μL RPMI 1640 medium containing 10% FBS in the presence or absence of small molecules at graded concentrations overnight. The culture supernatants were then removed and fresh media containing freshly prepared test compounds were added. On the fourth day post-infection, 100 μL of culture supernatants were collected from each well, mixed with equal volume of 5% TRITON X-100® and tested for p24 antigen by ELISA®.
# [1] = XTT cytotoxicity assay in MT-2 cells; format: cell-based; details: human, Table 1, formula I, cell type not given, read-out: CC50 (concentration that causes 50% cytotoxicity)
# Method: Briefly, for MT-2 cells, 100 μL of small molecule at graded concentrations was added to an equal volume of cells (5×10^4 cells/ml) in 96-well plates followed by incubation at 37° C. for 4 days, which ran parallel to the neutralization assay in MT-2 (except medium was added instead of virus). In the case of PBMC, 2.5×10^5 cells/mL were used and the cytotoxicity was measured after 7 days. After addition of XTT (PolySciences, Inc.), the soluble intracellular formazan was quantitated calorimetrically at 450 nm 4 hours later with a reference at 620 nm. The CC50 values were calculated.
Structure (SMILES),IC50 (HIV-1) [µM],CC50 [1] [µM]
Cc1ccc2cc(CN(Cc3ccco3)C(=O)c3cccc(F)c3)c(=O)[nH]c2c1 [NYAD-S81],< 10,> 10
Cc1cc(C)c2[nH]c(=O)c(CN(Cc3ccco3)C(=O)c3ccc(Br)cc3)cc2c1 [NYAD-S82],> 10,> 10
CCOc1ccc(C(=O)N(Cc2ccco2)Cc2cc3cc(OC)c(OC)cc3[nH]c2=O)cc1 [NYAD-S84],> 10,> 10
Cc1ccc(C)c2[nH]c(=O)c(CN(Cc3ccco3)C(=O)c3ccc(Br)cc3)cc12 [NYAD-S85],> 10,> 10
CCOc1ccc2[nH]c(=O)c(CN(Cc3ccco3)C(=O)c3ccccc3Cl)cc2c1 [NYAD-S89],> 10,> 10
Cc1ccc2[nH]c(=O)c(CN(Cc3ccco3)C(=O)c3ccccc3Br)cc2c1 [NYAD-S90],> 10,> 10
Cc1ccc2[nH]c(=O)c(CN(Cc3ccco3)C(=O)c3ccc(C(C)(C)C)cc3)cc2c1 [NYAD-S91],> 10,> 10
Cc1ccc(C(=O)N(Cc2ccco2)Cc2cc3ccc(C)cc3[nH]c2=O)cc1 [NYAD-S92],> 10,> 10
CCOc1ccc2[nH]c(=O)c(CN(Cc3ccco3)C(=O)c3ccc(Br)cc3)cc2c1 [NYAD-S94],> 10,> 10
CCOc1ccc2[nH]c(=O)c(CN(Cc3ccc(F)cc3)C(=O)c3ccco3)cc2c1 [NYAD-S95],> 10,> 10
Cc1ccc2[nH]c(=O)c(CN(Cc3ccc(F)cc3)C(=O)c3ccco3)cc2c1 [NYAD-S96],> 10,> 10
CCOc1ccc2[nH]c(=O)c(CN(Cc3ccco3)C(=O)c3cccc(F)c3)cc2c1 [NYAD-S97],> 10,< 10
Cc1ccc2[nH]c(=O)c(CN(Cc3ccc(Cl)cc3)C(=O)c3ccccc3)cc2c1 [NYAD-S98],> 10,> 10
CCc1ccc2[nH]c(=O)c(CN(Cc3ccco3)C(=O)c3ccccc3)cc2c1 [NYAD-S99],> 10,> 10
COc1ccc2[nH]c(=O)c(CN(Cc3ccco3)C(=O)c3ccc(C)cc3)cc2c1 [NYAD-S100],< 10,> 10
Cc1cc(C)c2[nH]c(=O)c(CN(Cc3ccco3)C(=O)c3ccco3)cc2c1 [NYAD-S101],> 10,> 10
CCc1ccc2[nH]c(=O)c(CN(Cc3cccs3)C(=O)c3ccco3)cc2c1 [NYAD-S102],> 10,> 10
Cc1cc(C)c2[nH]c(=O)c(CN(Cc3ccco3)C(=O)c3ccc(F)cc3)cc2c1 [NYAD-S103],> 10,> 10
Cc1cc(C)c2cc(CN(Cc3ccco3)C(=O)C3CCCCC3)c(=O)[nH]c2c1 [NYAD-S104],> 10,> 10
COc1ccc2cc(CN(Cc3ccco3)C(=O)c3ccccc3)c(=O)[nH]c2c1 [NYAD-S105],> 10,> 10
CCOc1ccc2[nH]c(=O)c(CN(Cc3ccco3)C(=O)c3ccco3)cc2c1 [NYAD-S106],> 10,> 10
Cc1cc(C)c2[nH]c(=O)c(CN(Cc3ccco3)C(=O)c3ccncc3)cc2c1 [NYAD-S107],> 10,> 10
CCOc1ccc2[nH]c(=O)c(CN(Cc3ccco3)C(=O)c3ccc(C(C)(C)C)cc3)cc2c1 [NYAD-S108],> 10,> 10
CCOc1ccc2[nH]c(=O)c(CN(Cc3ccco3)C(=O)c3cc(OC)c(OC)c(OC)c3)cc2c1 [NYAD-S109],> 10,> 10
CCc1ccc2[nH]c(=O)c(CN(Cc3ccco3)C(=O)c3ccc(C(C)(C)C)cc3)cc2c1 [NYAD-S110],> 10,> 10
Cc1cc(C)c2cc(CN(Cc3ccco3)C(=O)c3ccccc3)c(=O)[nH]c2c1 [NYAD-S111],> 10,> 10
Cc1cccc2cc(CN(Cc3ccco3)C(=O)c3cccc(F)c3)c(=O)[nH]c12 [NYAD-S118],< 10,> 10
Cc1ccc(CN(Cc2cc3cc(C)ccc3[nH]c2=O)C(=O)c2ccco2)cc1 [NYAD-S121],< 10,> 10
Cc1ccc(C(=O)N(Cc2ccco2)Cc2cc3cccc(C)c3[nH]c2=O)cc1 [NYAD-S122],< 10,< 10
